# Biological target: M2 conductance domain (residues 22-62) (Influenza A virus, UniProt P0DOF5, C50S)
# Format: biochemical, influenza A Udorn/1972 virus
smiles,measurement,value
NC12CC3CC(CC(C3)C1)C2 [amantadine],blockage of proton uptake,~80%
same,"proton flux, initial slope of proton uptake per tetramer vs time",30 protons per tetramer per second

# — US8581584B2, “Membrane proteins, mechanisms of action and uses thereof” (priority 2010, dated 2013)
